The species entered for experiment [1] is Rattus norvegicus. Nature of the experiment: Selectivity index, ratio of IC50 for Fischer 344 rat kidney ALR1 using sodium D-glucuronate as substrate measured up to 4 mins at 30 degC to IC50 for Fischer 344 rat eye lens ALR2 using D,L-glyceraldehyde as substrate measured up to 4 mins at 30 degC. The following applies: time min <=4.
The target of experiment [2] is Aldo-keto reductase family 1 member B1 (Rattus norvegicus, UniProt P07943). Nature of the experiment: Inhibition of Fischer 344 rat eye lens ALR2 using D,L-glyceraldehyde as substrate measured up to 4 mins at 30 degC using NaHCO3/DMSO-dissolved compound by spectrophotometric analysis.
The target in experiment [3] is Aldo-keto reductase family 1 member A1 (Rattus norvegicus, UniProt P51635). In words: Inhibition of Fischer 344 rat kidney ALR1 using sodium D-glucuronate as substrate measured up to 4 mins at […] using NaHCO3/DMSO-dissolved compound by spectrophotometric analysis.
Sequence of Aldo-keto reductase family 1 member A1 (P51635 whole entry, looked up): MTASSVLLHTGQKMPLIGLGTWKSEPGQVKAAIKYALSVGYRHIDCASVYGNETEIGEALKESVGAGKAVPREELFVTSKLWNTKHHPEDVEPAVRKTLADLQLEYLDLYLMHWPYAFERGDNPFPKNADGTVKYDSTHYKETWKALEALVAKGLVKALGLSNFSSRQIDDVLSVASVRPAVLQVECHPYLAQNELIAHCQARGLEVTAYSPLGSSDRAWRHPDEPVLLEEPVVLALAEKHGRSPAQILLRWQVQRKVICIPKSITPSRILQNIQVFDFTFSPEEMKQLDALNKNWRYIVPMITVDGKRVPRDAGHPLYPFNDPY
Experiment [4] has as its target Aldo-keto reductase family 1 member B1 (Rattus norvegicus) (UniProt P07943). In words: Inhibition of Fischer 344 rat eye lens ALR2 using D,L-glyceraldehyde as substrate measured up to 4 mins at 30 degC NaHCO3/DMSO-dissolved compound at 100 uM by spectrophotometric analysis relative to control. The following applies: time min <=4.

In general, IC50 refers to the point on the concentration scale where inhibition reaches its midpoint. A high value points to a need for much substance. Consider `O=S(=O)(c1ccc(O)c(F)c1)n1ccc2ccccc21`, for which the Ratio IC50 in experiment [1] is 11.9. The IC50 in experiment [2] came out at 0.98 µM; in experiment [3], 11.7 µM. `O=S(=O)(c1ccc(O)cc1)c1cc2ccccc2[nH]1` displayed an IC50 in experiment [2] of 37.3 µM. In experiment [2], `O=S(=O)(c1ccccc1O)n1ccc2ccccc21` returned an IC50 of 14.2 µM. The term inhibition denotes the change of the read-out against control, counted positive when it falls. Higher therefore signals a response far below the control. In turn, `O=S(=O)(c1ccccc1O)c1c[nH]c2ccccc12` showed an inhibition in experiment [4] of 14.6%.

`O=S(=O)(c1cc2ccccc2[nH]1)c1ccccc1O` showed an inhibition in experiment [4] of 12.3%. In experiment [2], `O=S(=O)(c1ccc(O)cc1)c1c[nH]c2ccccc12` returned a 50% inhibitory concentration (IC50) of 59.6 µM. In the case of `O=S(=O)(c1ccc(O)cc1)n1ccc2ccccc21`, the Ratio IC50 in experiment [1] turned out to be 1.05. The half-inhibitory concentration (IC50) is 4.51 µM in experiment [2] and 4.73 µM in experiment [3].

(Values after ChEMBL document CHEMBL4725281, “Design synthesis and evaluation of novel aldose reductase inhibitors: The case of indolyl-sulfonyl-phenols” (Bioorg Med Chem, 2020).)
